In experiment [1] the test system is Platelets from Gas6+/+ mice. Nature of the experiment: Platelet aggregation (turbidimetric, Chronolog aggregometer), Gas6+/+ platelets. In kind it is cell-based. To be noted: for platelet aggregation in response to agonist (dose dependence): platelet-rich plasma, FIG. 1a-j; for platelet aggregation in response to PMA, A23187 or thrombin: FIG. 2, thrombin with washed platelets. Here is the method: (§1) Blood was centrifuged at 100 g for 10 minutes, allowing separation of platelet-rich plasma (PRP). Platelet-poor plasma (PPP) was obtained by centrifugation of the remaining blood at 2,000 g for 10 minutes. PRP and PPP were pooled from four Gas6^−/− or Gas6^+/+ mice. Platelet aggregation was measured turbidimetrically in an optical Chronolog aggregometer (model 490, Coulter Electronics Ltd), using 280 μl PRP, adjusted to a concentration of 250,000 platelets/μl with PPP as a diluent. PPP also served as 100% reference for aggregation. Aggregation in response to collagen (equine collagen from Hormon Chemie), ADP or the thromboxane A2 mimetic U46619 was studied.
(§2) Aggregation in response to thrombin was performed with washed platelets. […] Apyrase was added to PRP at a final concentration of 1 u/ml. Platelets were then washed by adding 2 volumes ACD and pelleted by centrifugation at 2,000 g for 10 minutes. Platelet pellet was resuspended in Tyrode's buffer containing 1% BSA and final platelet suspension was adjusted to 200,000 platelets/μl and kept at 37° C. Platelet aggregation was measured with an optical Chronolog aggregometer as described above.

Experiment [2] has as its system platelets from Gas6−/− mice. Nature of the experiment: Platelet aggregation (turbidimetric, Chronolog aggregometer), Gas6−/− platelets. The class given is cell-based. To be noted: for irreversible platelet aggregation at higher agonist concentrations: ADP 50 μM, collagen 5-15 μg/ml, U46619 100 μM; for irreversible platelet aggregation at low agonist concentrations: ADP <10 μM, collagen 2 μg/ml, U46619 10 μM, only shape change; for platelet aggregation in response to PMA, A23187 or thrombin: FIG. 2, thrombin with washed platelets. As for the experimental part: as §1, §2

In a further experiment the test system is Gas6+/+ platelets. The experiment in a line: Platelet ATP release (dense granule secretion), Lumi-aggregometer, Gas6+/+ platelets. The class given is cell-based, mice. To be noted: mean±SEM of three experiments. Also noted: unit not given here. As for the experimental part: (§3) Platelet aggregation and, ATP secretion were measured in an optical Chronolog Lumi-aggregometer (Coulter Electronics Ltd), using 280 μl PRP, adjusted to a concentration of 250,000 platelets/μl with PPP as a diluent. Platelet aggregation was measured as described in example 4. Platelet ATP release was monitored by adding firely luciferase and luciferin to all samples and comparing luminescence created by platelet ATP release to that generated by addition of an ATP standard (Chrono-Lume, Kordia). Aggregation and ATP release in response to collagen (equine collagen from Hormon Chemie), ADP, or the thromboxane A2 mimetic U46619 were studied. Platelet aggregation and ATP secretion in response to thrombin were performed with washed platelets in an optical Chronolog Lumi-aggregometer as described above.

A further experiment deals with Gas6−/− platelets. The experiment in a line: Platelet ATP release (dense granule secretion), Lumi-aggregometer, Gas6−/− platelets. In kind it is cell-based, mice. Also noted: unit not given here. To be noted: mean±SEM of three experiments. Here is the method: as §3
[3] abbreviates: agonist 20 μM, platelet-rich plasma.
Where [4] appears, read: agonist 50 μM, platelet-rich plasma.
Where [5] appears, read: agonist 10 μg/ml, platelet-rich plasma.
Setting [6] is: agonist 100 μM, platelet-rich plasma.
Where [7] appears, read: agonist 1 U/ml, washed platelets.
Setting [8] is: agonist 8 μM, platelet-rich plasma.

These results are taken from patent US20030144237A1, “Use of inhibition of a gas6 function or of a gas6 receptor for preventing and treating a cardiovascular disease” (priority 2000, published 2003).

As to `Nc1ncnc2c1ncn2[C@@H]1O[C@H](COP(=O)(O)OP(=O)(O)O)[C@@H](O)[C@H]1O` [ADP, adenosine 5′-diphosphate], the “platelet aggregation in response to agonist (dose dependence)” value (from here on “platelet aggregation … (dose dependence)”) in experiment [1] was “dose-dependently aggregated”. Besides, the “irreversible platelet aggregation at higher agonist concentrations” value in experiment [2] is “induced irreversible aggregation”. In addition, the “irreversible platelet aggregation at low agonist concentrations” value in experiment [2] is reported as “failed to irreversibly aggregate”. In addition, the ATP release in the experiment on Gas6+/+ platelets (setting [3]) amounted to 0.8 ± 0.1; in the experiment on Gas6+/+ platelets (setting [4]), 2.6 ± 0.8; in the experiment with Gas6−/− platelets (setting [3]) it was 0.2 ± 0.1; in the experiment with Gas6−/− platelets (setting [4]) it was 1.3 ± 0.3.
For the compound Collagen, the “platelet aggregation … (dose dependence)” value in experiment [1] is recorded as “dose-dependently aggregated”. Besides, the “irreversible platelet aggregation at higher agonist concentrations” value in experiment [2] is given as “induced irreversible aggregation”. Also, the “irreversible platelet aggregation at low agonist concentrations” value in experiment [2] was “failed to irreversibly aggregate”. Besides, the ATP release came to 1.8 ± 0.3 with Gas6+/+ platelets (agonist 1 μg/ml, platelet-rich plasma); 10 ± 1.0 in the experiment with Gas6+/+ platelets (setting [5]); 11 ± 0.8 in the experiment with Gas6−/− platelets (setting [5]).
Turning to `CCCCCCCCCCCCCC(=O)O[C@@H]1[C@@H](C)[C@@]2(O)[C@@H](C=C(CO)C[C@]3(O)C(=O)C(C)=C[C@@H]23)[C@@H]2C(C)(C)[C@]12OC(C)=O` [PMA, phorbol-12-myristyl-13-acetate], the “platelet aggregation in response to PMA, A23187 or thrombin” value (shortened to “platelet aggregation in response to PMA”) in experiment [1] and in experiment [2] was “aggregated normally” throughout. For the same compound, the ATP release came out at 2.3 ± 0.4 in the experiment with Gas6+/+ platelets (setting [6]) and 1.9 ± 0.6 with Gas6−/− platelets (setting [6]).
Turning to `CCCCC[C@H](O)/C=C/[C@@H]1[C@@H](C/C=C\CCCC(=O)O)[C@H]2CO[C@@H]1C2` [U46619], the “platelet aggregation … (dose dependence)” value in experiment [1] is listed as “dose-dependently aggregated”. For the same compound, the “irreversible platelet aggregation at higher agonist concentrations” value in experiment [2] is on record as “induced irreversible aggregation”. The “irreversible platelet aggregation at low agonist concentrations” value in experiment [2] is on record as “failed to irreversibly aggregate”. Also, the ATP release with Gas6+/+ platelets (agonist 10 μM, platelet-rich plasma) was found to be 6.5 ± 1.5; with Gas6+/+ platelets (setting [6]), 8.2 ± 2.0; in the experiment with Gas6−/− platelets (setting [6]) it was 7.6 ± 2.3.
Consider Thrombin, for which the “platelet aggregation in response to PMA” value in experiment [1] and in experiment [2] was “stimulated platelet aggregation comparably in both genotypes” each time. In addition, the ATP release is on record as 17 ± 1.6 in the experiment with Gas6+/+ platelets (setting [7]) and 11 ± 1.2 in the experiment on Gas6−/− platelets (setting [7]).
`CNc1ccc2oc(C[C@H]3O[C@@]4(CC[C@H]3C)O[C@H]([C@H](C)C(=O)c3ccc[nH]3)[C@H](C)C[C@H]4C)nc2c1C(=O)O` [A23187]: the “platelet aggregation in response to PMA” value in experiment [1] and in experiment [2] was “aggregated normally” throughout. Further, the ATP release with Gas6+/+ platelets (setting [8]) amounted to 9.2 ± 3.1; with Gas6−/− platelets (setting [8]), 7.3 ± 3.0.
